From US20260199212A1, “USE OF L-CARNOSINE AGAINST SOLAR ELASTOSIS” (SYMRISE AG, priority 2022, published 2026)

Tests used:
fibrillin-1 = test: Fibrillin-1 immunostaining in the papillary dermis of skin explants, semi-quantified by image analysis; format: cell-based, human; details: after infrared irradiation
Protocol: (§1) Human skin explants of an average diameter of 12 mm (+1 mm) were prepared on an abdo-plasty coming from a person with a phototype II according to Fitz-patrick skin colour classification. The explants were kept in survival in BEM culture medium (BIO-EC's Explants Medium) at 37° C. in a humid, 5%-CO2 atmosphere.
(§2) Compositions A and B were applied at the rate of 2 μL per 1 cm^2 skin sample (~2 mg/cm^2) and spread using a small spatula on day 0, day 1, day 2, day 3 and day 6 (30 min before infrared irradiation exposure). […] The culture medium was half renewed (1 ml per well) on day 2, day 3 and day 6.
(§3) On day 6, the culture media of all the batches was replaced by HBSS (Hank's Balanced Saline Solution; 1 ml per explant). The batches IR, IR-C2, and IR-T were irradiated using a infrared lamp (Dr FISCHER 1000W, 235V 2500K; 760-3000 nm), for 1:24 h (720 J/cm^2; 140 mW/cm^2). The non-irradiated batches were kept in HBSS in the dark. […]
Nuclei have been post-stained with propidium iodide. The staining was assessed by microscopical observation and semi-quantified by image analysis. […]
Fibrillin-1 immunostaining was assessed by microscopical observation of skin sections with semi-quantification by image analysis using the software cellSens (Olympus).
(§4) Analysed zone: ROI including the papillary dermis.
(§5) Number of analysed images per batch: 9. […]

tropoelastin = test: Tropoelastin immunostaining in the papillary dermis of skin explants, semi-quantified by image analysis; format: cell-based, human; details: when applying L-Carnosine
Protocol: as §1, §2, §3
Nuclei have been post stained with propidium iodide. The staining was assessed by microscopical observation and semi-quantified by image analysis. […]
Tropoelastin immunostaining was assessed by microscopical observation of skin sections with semi-quantification by image analysis using the software cellSens (Olympus).
as §4, §5

SMILES: NCCC(=O)N[C@@H](Cc1cnc[nH]1)C(=O)O [L-Carnosine]
- amount of fibrillin-1 in the dermis (fibrillin-1): strongly increase
- amounts of elastin after infrared irradiation versus without infrared irradiation (tropoelastin): not significantly different
